Experimental data published in patent US6696600B2, “L-DOPA ethyl ester salts and uses thereof” (priority 2001, dated 2004).
Read-outs that look alike come from different tables or passages of the source.

Legend:
[1] = cited from earlier work; for pKa (first value): acid or acid salt used for salt preparation
[2] = pKa and delta pKa (pKa LDEE − pKa acid); type: physicochemical
Source text: Preparation and selection of salts that have different physical properties are detailed in the literature. […]. PKa of LDEE free base is known to be 7.24 [8]. […]. This fact is illustrated in Example 1 below, in which the crystallization of LDEE palmitate was attempted. After dissolution of LDEE base and palmitic acid in absolute alcohol, the solution was cooled, and instead of forming a new salt, pure palmitic acid was crystallized out, and no solid crystalline salt was formed. […]

[3] = Stability of dihydrates, impurity profile (HPLC), 8 days at 65° C.; type: physicochemical
Procedure: The stability of succinate dihydrate and fumarate dihydrate were investigated under the following test conditions: 8 days at 65° C. in glass vial (air) (Table 1).

pH of water solution = type: physicochemical
[4] = Hygroscopicity test: weight gain of solid sample in humidity chamber at RH=80%; type: physicochemical; details: for hygroscopicity (in words): RH=80% screening; for weight gain in hygroscopicity test / appearance after exposure in a humidity chamber: RH=80%; for weight gain in hygroscopicity test: T=20±2° C., during 24 hrs
Source text: There are many methods of quantitative evaluation of hygroscopicity of solid products without measuring the hygroscopic point. The most widely used method is based on measuring the weight gain of a solid sample in a humidity chamber. […] This method was used for screening the hygroscopicity of several LDEE salts. It also provides a comparison of the hygroscopic properties of different solids by comparison of water absorption rates under the same conditions.

[5] = background, from references; cited from earlier work
[6] = background statement; cited from earlier work
[7] = Exposure of hygroscopic salts to atmospheric air
[8] = End, 8 days at 65° C. in glass vial (air)

For `O=C(O)CCCc1ccccc1` [Phenyl Butyric acid], the “pKa (first value)” value [1] is given as 4.76.

In the case of `CCCCCCCCCCCCCCCC(=O)O` [Palmitic acid], the “pKa (first value)” value [1] is given as “˜4.8”, the pKa [1] is given as 4.8 and the DpKa [2] is given as 2.4.

For `CCOC(=O)[C@@H](N)Cc1ccc(O)c(O)c1.CCOC(=O)[C@@H](N)Cc1ccc(O)c(O)c1.O.O.O=C(O)/C=C/C(=O)O` [Example 25, LDEE Fumarate Dihydrate], the “Assay LDEE (%)” value [3, 8] was 75.0%, the “L-DOPA (%)” value [3, 8] was 0.27% and the “LD-LDEE (%)” value [3, 8] was 0.03%. The “Unknown RRT = 0.72 (%)” value [3, 8] was 0.09%, the “cyc.L-DOPA (%)” value [3, 8] was “L.T. 0.03%” and the “Assay LDEE (%)” value ([3]; Start) was 75.0%. The “L-DOPA (%)” value ([3]; Start) was 0.11%, the “LD-LDEE (%)” value ([3]; Start) was “L.T. 0.03%” and the “pH of water solution” value (pH of water solution) was 5.5. For the same compound, the “delta pKa pKaLDEE − pKaacid (first value)” value [2] was 4.21, the “delta pKa pKaLDEE − pKaacid (second value)” value [2] was 2.7 and the “Color stability at RH = 80%” value ([4]; RH = 80%) was >48 h. The “Mean water absorption rate at RH = 80%” value ([4]; RH = 80%) was 0.0004 mol/kg/h, the “water absorption at RH=80% (in words)” value ([4]; RH = 80%) was “did not absorb water” and the “Material appearance after 24 hrs at RH = 80%” value ([4]; RH = 80%) was “White flowable powder”. The “Weight gain during 24 hrs at RH = 80%,%” value ([4]; RH = 80%) was 0.04%, the “hygroscopicity (in words)” value [4] was “non-hygroscopic” and the “weight gain in hygroscopicity test” value [4] was 0.04%. The “appearance after exposure in a humidity chamber” value ([4]; more than 48 hrs) was “white flowable powder”.

For `CCOC(=O)[C@@H](N)Cc1ccc(O)c(O)c1.CCOC(=O)[C@@H](N)Cc1ccc(O)c(O)c1.O.O.O=C(O)CCC(=O)O` [Example 23, LDEE Succinate Dihydrate], the “Assay LDEE (%)” value [3, 8] was 73.46%, the “L-DOPA (%)” value [3, 8] was 0.56% and the “Unknown RRT = 0.83 (%)” value [3, 8] was 0.03%. The “cyc.L-DOPA (%)” value [3, 8] was 0.03%, the “Assay LDEE (%)” value ([3]; Start) was 74.1% and the “L-DOPA (%)” value ([3]; Start) was 0.1%. For the same compound, the “pH of water solution” value (pH of water solution) was 5.8, the “delta pKa pKaLDEE − pKaacid (first value)” value [2] was 3.08 and the “delta pKa pKaLDEE − pKaacid (second value)” value [2] was 1.63. For the same compound, the “Color stability at RH = 80%” value ([4]; RH = 80%) was >72 h, the “Mean water absorption rate at RH = 80%” value ([4]; RH = 80%) was 0.006 mol/kg/h and the “water absorption at RH=80% (in words)” value ([4]; RH = 80%) was “did not absorb water”. The “Material appearance after 24 hrs at RH = 80%” value ([4]; RH = 80%) was “White flowable powder”, the “Weight gain during 24 hrs at RH = 80%,%” value ([4]; RH = 80%) was 0.27% and the “hygroscopicity (in words)” value [4] was “non-hygroscopic”. For the same compound, the “weight gain in hygroscopicity test” value [4] was 0.27% and the “appearance after exposure in a humidity chamber” value ([4]; about 72 hrs) was “white flowable powder”.

In the case of `CCCCCCCC/C=C\CCCCCCCC(=O)O` [Oleic acid], the “pKa (first value)” value [1] is listed as “˜4.8”.

In the case of `CCCCCCCCCCCCCCCCCC(=O)O` [Stearic acid], the “pKa (first value)” value [1] is given as “˜4.8”.

For `CCOC(=O)[C@@H](N)Cc1ccc(O)c(O)c1` [LDEE, L-DOPA ethyl ester], the “pH of water solution” value (pH of water solution) is given as 8.2, the “hygroscopicity (in words)” value [5] is given as “non-hygroscopic” and the “delta pKa pKaLDEE − pKaacid (first value)” value [2] is given as 0. For the same compound, the “aqueous solution pH” value [6] was 8.2, the “Color stability at RH = 80%, hrs” value ([4]; RH = 80%) was “˜50 hrs” and the “Mean water absorption rate at RH = 80%” value ([4]; RH = 80%) was 0.005 mol/kg/h. The “Material appearance after 24 hrs at RH = 80%” value ([4]; RH = 80%) was “White flowable powder”, the “Weight gain during 24 hrs at RH = 80%,%” value ([4]; RH = 80%) was 0.24% and the “hygroscopicity (in words)” value [4] was “not a hygroscopic material”.

For `CC(=O)O.CCOC(=O)[C@@H](N)Cc1ccc(O)c(O)c1` [Example 2, LDEE Acetate], the “behaviour in atmospheric air (in words)” value [7] was “deliquescent”, the “delta pKa pKaLDEE − pKaacid (first value)” value [2] was 2.48 and the “Color stability at RH = 80%” value ([4]; RH = 80%) was 1.5 h. For the same compound, the “Mean water absorption rate at RH = 80%” value ([4]; RH = 80%) was 0.155 mol/kg/h, the “Material appearance after 24 hrs at RH = 80%” value ([4]; RH = 80%) was “Semi-solid melt” and the “Weight gain during 24 hrs at RH = 80%,%” value ([4]; RH = 80%) was 6.7%. The “hygroscopicity (in words)” value [4] was “hygroscopic” and the “weight gain in hygroscopicity test” value [4] was 6.7%.

In the case of `CCOC(=O)[C@@H](N)Cc1ccc(O)c(O)c1.Cl` [hydrochloride salt of LDEE], the “hygroscopicity (in words)” value [5] is listed as “extremely hygroscopic”.

For `CCCCCCCCCCCCCC(=O)O` [Myristic acid], the “pKa (first value)” value [1] is listed as “˜4.8”.

In the case of `CCOC(=O)[C@@H](N)Cc1ccc(O)c(O)c1.CS(=O)(=O)O` [Example 3, LDEE Mesylate], the “behaviour in atmospheric air (in words)” value [7] is reported as “deliquescent”, the “delta pKa pKaLDEE − pKaacid (first value)” value [2] is reported as 6.04 and the “Color stability at RH = 80%” value ([4]; RH = 80%) is reported as >24 h. For the same compound, the “Mean water absorption rate at RH = 80%” value ([4]; RH = 80%) was 0.405 mol/kg/h, the “Material appearance after 24 hrs at RH = 80%” value ([4]; RH = 80%) was “Syrup” and the “Weight gain during 24 hrs at RH = 80%,%” value ([4]; RH = 80%) was 17.5%. The “hygroscopicity (in words)” value [4] was “hygroscopic” and the “weight gain in hygroscopicity test” value [4] was 17.5%.
